Source: ChEMBL document CHEMBL4325931, “Modification of the Thioglycosyl-Naphthalimides as Potent and Selective Human O-GlcNAcase Inhibitors” (ACS Med Chem Lett, 2018)

Assays:
[1] = target: T1, Protein O-GlcNAcase (Homo sapiens) (UniProt O60502); test: Inhibition of recombinant human OGA expressed in Escherichia coli BL21 (DE3) at 20 uM using 4-Mu-GlcNAc as substrate preincubated for 10 mins followed by substrate addition and measured after 30 mins by fluorescence assay relative to control
T1 sequence (whole entry): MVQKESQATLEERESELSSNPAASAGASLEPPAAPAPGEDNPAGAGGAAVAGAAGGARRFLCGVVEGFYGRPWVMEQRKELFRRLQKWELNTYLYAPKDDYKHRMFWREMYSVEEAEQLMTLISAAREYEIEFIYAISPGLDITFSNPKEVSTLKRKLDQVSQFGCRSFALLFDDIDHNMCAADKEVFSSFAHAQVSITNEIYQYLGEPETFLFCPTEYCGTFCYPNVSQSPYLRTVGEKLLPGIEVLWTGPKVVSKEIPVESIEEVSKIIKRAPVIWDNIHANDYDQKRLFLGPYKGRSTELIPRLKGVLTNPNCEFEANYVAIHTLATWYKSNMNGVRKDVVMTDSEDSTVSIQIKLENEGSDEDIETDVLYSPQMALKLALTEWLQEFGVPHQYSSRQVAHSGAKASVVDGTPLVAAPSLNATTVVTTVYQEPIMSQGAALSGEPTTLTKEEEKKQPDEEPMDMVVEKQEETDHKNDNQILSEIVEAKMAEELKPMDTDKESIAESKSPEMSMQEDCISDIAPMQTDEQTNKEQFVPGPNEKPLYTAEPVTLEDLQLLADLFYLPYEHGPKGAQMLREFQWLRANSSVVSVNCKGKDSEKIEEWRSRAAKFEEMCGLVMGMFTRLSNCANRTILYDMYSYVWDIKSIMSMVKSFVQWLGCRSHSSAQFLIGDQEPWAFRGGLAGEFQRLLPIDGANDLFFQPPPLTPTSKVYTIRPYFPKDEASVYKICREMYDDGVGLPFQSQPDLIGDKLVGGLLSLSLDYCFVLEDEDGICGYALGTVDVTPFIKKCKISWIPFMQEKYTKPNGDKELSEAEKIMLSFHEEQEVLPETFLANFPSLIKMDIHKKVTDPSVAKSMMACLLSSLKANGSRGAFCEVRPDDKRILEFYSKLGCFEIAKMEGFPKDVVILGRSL

[2] = target: T2, Beta-hexosaminidase subunit beta (Homo sapiens) (UniProt P07686); test: Inhibition of recombinant human His6-tagged HexB expressed in Pichia pastoris at 20 uM using 4-Mu-GlcNAc as substrate preincubated for 10 mins followed by substrate addition and measured after 30 mins by fluorescence assay relative to control
T2 sequence (whole entry): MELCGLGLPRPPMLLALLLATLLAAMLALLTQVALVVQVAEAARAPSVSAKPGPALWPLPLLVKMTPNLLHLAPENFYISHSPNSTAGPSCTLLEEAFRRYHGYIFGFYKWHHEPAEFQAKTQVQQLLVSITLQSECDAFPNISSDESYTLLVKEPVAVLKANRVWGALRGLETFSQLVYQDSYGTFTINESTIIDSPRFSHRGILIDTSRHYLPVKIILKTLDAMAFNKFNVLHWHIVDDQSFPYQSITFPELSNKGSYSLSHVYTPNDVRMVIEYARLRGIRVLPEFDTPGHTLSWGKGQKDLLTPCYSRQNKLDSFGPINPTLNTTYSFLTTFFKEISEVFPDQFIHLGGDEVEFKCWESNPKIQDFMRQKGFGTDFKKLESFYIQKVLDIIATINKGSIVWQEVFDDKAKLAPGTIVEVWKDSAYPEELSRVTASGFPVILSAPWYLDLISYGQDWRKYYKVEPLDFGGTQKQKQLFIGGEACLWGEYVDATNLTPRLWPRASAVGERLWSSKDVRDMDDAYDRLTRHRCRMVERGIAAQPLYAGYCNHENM

[3] = target: T3, Protein O-GlcNAcase (Homo sapiens, UniProt O60502); test: Inhibition of recombinant human OGA expressed in Escherichia coli BL21 (DE3) using varying levels of 4-Mu-GlcNAc as substrate preincubated for 10 mins followed by substrate addition and measured after 30 mins by dixon plot analysis
T3 sequence (O60502 whole entry): T1 sequence (whole entry)

[4] = target: T4, Beta-hexosaminidase subunit beta (Homo sapiens, UniProt P07686); test: Inhibition of recombinant human His6-tagged HexB expressed in Pichia pastoris using varying levels of 4-Mu-GlcNAc as substrate preincubated for 10 mins followed by substrate addition and measured after 30 mins by dixon plot analysis
T4 sequence (P07686 whole entry): T2 sequence (whole entry)

[5] = species: Homo sapiens; test: Selectivity ratio of Ki for recombinant human His6-tagged HexB expressed in Pichia pastoris to Ki for recombinant human OGA expressed in Escherichia coli BL21 (DE3)
[6] = Inhibition of Ostrinia furnacalis beta-N-acetylhexosaminidase using pNP-beta-GlcNAc as substrate by dixon plot analysis
[7] = target: Beta-hexosaminidase (Homo sapiens); test: Inhibition of human beta-N-acetylhexosaminidase using pNP-beta-GlcNAc as substrate by dixon plot analysis
[8] = target: T2, Beta-hexosaminidase subunit beta (Homo sapiens); test: Inhibition of recombinant human His6-tagged HexB expressed in Pichia pastoris at 100 uM using varying levels of 4-Mu-GlcNAc as substrate preincubated for 10 mins followed by substrate addition and measured after 30 mins by dixon plot analysis relative to control
[9] = target: T1, Protein O-GlcNAcase (Homo sapiens); test: Inhibition of recombinant human OGA expressed in Escherichia coli BL21 (DE3) at 20 uM using 4-Mu-GlcNAc as substrate measured after 30 mins by fluorescence assay relative to control
[10] = target: T2, Beta-hexosaminidase subunit beta (Homo sapiens); test: Inhibition of recombinant human His6-tagged HexB expressed in Pichia pastoris at 20 uM using 4-Mu-GlcNAc as substrate measured after 30 mins by fluorescence assay relative to control
[11] = target: T4, Beta-hexosaminidase subunit beta; test: Inhibition of recombinant human His6-tagged HexB expressed in Pichia pastoris using 4-Mu-GlcNAc as substrate preincubated for 10 mins followed by substrate addition and measured after 30 mins by fluorescence assay
[12] = target: T3, Protein O-GlcNAcase; test: Inhibition of recombinant human OGA expressed in Escherichia coli BL21 (DE3) using 4-Mu-GlcNAc as substrate preincubated for 10 mins followed by substrate addition and measured after 30 mins by fluorescence assay

| Compound | inhibition [1] | inhibition [2] | Ki [3] | Ki [4] | Ratio Ki [5] | other results |
| --- | --- | --- | --- | --- | --- | --- |
| CC(=O)N[C@@H]1[C@@H](O)[C@H](O)[C@@H](CO)O[C@H]1SCCCNCCN1C(=O)c2cccc3c(Br)ccc(c23)C1=O | 75.7% | 60.6% | 3.5 µM | 5.1 µM | 1.5 |  |
| CC(=O)N[C@@H]1[C@@H](O)[C@H](O)[C@@H](CO)O[C@H]1SCCNCCN1C(=O)c2cccc3c([N+](=O)[O-])ccc(c23)C1=O | 25.1% | 13.8% |  |  |  |  |
| CC(=O)N[C@@H]1[C@@H](O)[C@H](O)[C@@H](CO)O[C@H]1SCCNCCN1C(=O)c2cccc3c(N4CCCCC4)ccc(c23)C1=O | 36.7% | 0% |  |  |  |  |
| CC(=O)N[C@@H]1[C@@H](O)[C@H](O)[C@@H](CO)O[C@H]1SCCNCCCN1C(=O)c2cccc3c(Br)ccc(c23)C1=O | 84.7% | 70.5% | 0.9 µM | 1.8 µM | 2 |  |
| COc1ccc2c3c(cccc13)C(=O)N(CCNCCCS[C@@H]1O[C@H](CO)[C@@H](O)[C@H](O)[C@H]1NC(C)=O)C2=O | 34.3% | 39% |  |  |  |  |
| CC(=O)N[C@@H]1[C@@H](O)[C@H](O)[C@@H](CO)O[C@H]1SCCCNCCN1C(=O)c2cccc3c(Cl)ccc(c23)C1=O | 83.6% | 75.2% | 0.7 µM | 1.6 µM | 2.3 |  |
| Cc1nnc(CNCCN2C(=O)c3cccc4c(N(C)C)ccc(c34)C2=O)s1 |  |  |  |  |  | Ki [6]: 0.3 µM; Ki [7]: > 100 µM |
| COc1ccc2c3c(cccc13)C(=O)N(CCCNCCS[C@@H]1O[C@H](CO)[C@@H](O)[C@H](O)[C@H]1NC(C)=O)C2=O | 73.1% | 47.9% | 1.6 µM | 22.1 µM | 13.8 |  |
| CC(=O)N[C@@H]1[C@@H](O)[C@H](O)[C@@H](CO)O[C@H]1SCCNCCCN1C(=O)c2cccc3c(N(C)C)ccc(c23)C1=O | 40.9% | 0% |  |  |  |  |
| CC(=O)N[C@@H]1[C@@H](O)[C@H](O)[C@@H](CO)O[C@H]1SCCNCCCN1C(=O)c2cccc3c([N+](=O)[O-])ccc(c23)C1=O | 55% | 8% | 8.3 µM |  | > 12 | inhibition [8]: < 50% |
| COc1ccc2c3c(cccc13)C(=O)N(CCCNCCCS[C@@H]1O[C@H](CO)[C@@H](O)[C@H](O)[C@H]1NC(C)=O)C2=O | 68% | 45.2% | 15.9 µM | 24.7 µM | 1.6 |  |
| CC(=O)N[C@@H]1[C@@H](O)[C@H](O)[C@@H](CO)O[C@H]1SCCCNCCN1C(=O)c2cccc3c([N+](=O)[O-])ccc(c23)C1=O | 25.6% | 0% |  |  |  |  |
| CC(=O)N[C@@H]1[C@@H](O)[C@H](O)[C@@H](CO)O[C@H]1SCCNCCCN1C(=O)c2cccc3c(Cl)ccc(c23)C1=O | 83.3% | 70.8% | 0.8 µM | 1.6 µM | 2 |  |
| CC(=O)N[C@@H]1[C@@H](O)[C@H](O)[C@@H](CO)O[C@H]1SCCNCCCN1C(=O)c2cccc3cccc(c23)C1=O |  |  |  |  | 8 | inhibition [9]: 82.4%; inhibition [10]: 38.7% |
| CC(=O)N[C@@H]1[C@@H](O)[C@H](O)[C@@H](CO)O[C@H]1SCCNCCN1C(=O)c2cccc3c(Br)ccc(c23)C1=O | 73.2% | 73.3% | 1.2 µM | 2.6 µM | 2.2 |  |
| CC(=O)N[C@@H]1[C@@H](O)[C@H](O)[C@@H](CO)O[C@H]1SCCCNCCN1C(=O)c2cccc3c(N(C)C)ccc(c23)C1=O | 26.6% | 0% |  |  |  |  |
| Cc1nnc(CNCCN2C(=O)c3cccc4cccc(c34)C2=O)s1 |  |  |  |  |  | Ki [6]: 4.3 µM; Ki [7]: 2.2 µM |
| CC(=O)N[C@@H]1[C@@H](O)[C@H](O)[C@@H](CO)O[C@H]1SCCCNCCCN1C(=O)c2cccc3c(Cl)ccc(c23)C1=O | 68.9% | 74.3% | 2.1 µM | 1.8 µM | 0.9 |  |
| CC(=O)N[C@@H]1[C@@H](O)[C@H](O)[C@@H](CO)O[C@H]1SCCNCCN1C(=O)c2cccc3c(Cl)ccc(c23)C1=O | 66.1% | 73.8% | 2 µM | 1.2 µM | 0.6 |  |
| CC(=O)N[C@@H]1[C@@H](O)[C@H](O)[C@@H](CO)O[C@H]1SCCCNCCCN1C(=O)c2cccc3c(N4CCCCC4)ccc(c23)C1=O | 49.1% | 0% |  |  |  |  |
| CC(=O)N[C@@H]1[C@@H](O)[C@H](O)[C@@H](CO)O[C@H]1SCCCNCCN1C(=O)c2cccc3c(N4CCCCC4)ccc(c23)C1=O | 67.5% | 0% | 3.2 µM |  | > 31.2 | inhibition [8]: < 50% |
| CC(=O)N[C@@H]1[C@@H](O)[C@H](O)[C@@H](CO)O[C@H]1SCCNCCN1C(=O)c2cccc3c(N(C)C)ccc(c23)C1=O | 32.6% | 0% |  |  |  | IC50 [11]: > 100 µM; IC50 [12]: 25 µM |
| CC(=O)N[C@@H]1[C@@H](O)[C@H](O)[C@@H](CO)O[C@H]1SCCCNCCCN1C(=O)c2cccc3c([N+](=O)[O-])ccc(c23)C1=O | 20% | 0% |  |  |  |  |
| CC(=O)N[C@@H]1[C@@H](O)[C@H](O)[C@@H](CO)O[C@H]1SCCCNCCCN1C(=O)c2cccc3c(Br)ccc(c23)C1=O | 59.2% | 65% | 2.2 µM | 4.4 µM | 2 |  |
| CC(=O)N[C@@H]1[C@@H](O)[C@H](O)[C@@H](CO)O[C@H]1SCCNCCCN1C(=O)c2cccc3c(N4CCCCC4)ccc(c23)C1=O | 87.6% | 0% | 0.6 µM |  | > 167 | inhibition [8]: < 50% |
| CC(=O)N[C@@H]1[C@@H](O)[C@H](O)[C@@H](CO)O[C@H]1SCCCNCCCN1C(=O)c2cccc3c(N(C)C)ccc(c23)C1=O | 28.2% | 0% |  |  |  |  |
| COc1ccc2c3c(cccc13)C(=O)N(CCNCCS[C@@H]1O[C@H](CO)[C@@H](O)[C@H](O)[C@H]1NC(C)=O)C2=O | 56.4% | 22.5% | 6.7 µM | 56.2 µM | 8.4 |  |
